A word on the pEC50: it is the negative decadic logarithm of the EC50, by convention in mol/L. A high value points to a low EC50.

The values below come from publication PMC11164132 (British journal of pharmacology, 2021).

This assay addresses hTRPV1 (Homo sapiens, UniProt Q8NER1). The format is cell-based.

pEC50: −log10 of the molar value.

hTRPV1, sequence (Q8NER1 whole entry): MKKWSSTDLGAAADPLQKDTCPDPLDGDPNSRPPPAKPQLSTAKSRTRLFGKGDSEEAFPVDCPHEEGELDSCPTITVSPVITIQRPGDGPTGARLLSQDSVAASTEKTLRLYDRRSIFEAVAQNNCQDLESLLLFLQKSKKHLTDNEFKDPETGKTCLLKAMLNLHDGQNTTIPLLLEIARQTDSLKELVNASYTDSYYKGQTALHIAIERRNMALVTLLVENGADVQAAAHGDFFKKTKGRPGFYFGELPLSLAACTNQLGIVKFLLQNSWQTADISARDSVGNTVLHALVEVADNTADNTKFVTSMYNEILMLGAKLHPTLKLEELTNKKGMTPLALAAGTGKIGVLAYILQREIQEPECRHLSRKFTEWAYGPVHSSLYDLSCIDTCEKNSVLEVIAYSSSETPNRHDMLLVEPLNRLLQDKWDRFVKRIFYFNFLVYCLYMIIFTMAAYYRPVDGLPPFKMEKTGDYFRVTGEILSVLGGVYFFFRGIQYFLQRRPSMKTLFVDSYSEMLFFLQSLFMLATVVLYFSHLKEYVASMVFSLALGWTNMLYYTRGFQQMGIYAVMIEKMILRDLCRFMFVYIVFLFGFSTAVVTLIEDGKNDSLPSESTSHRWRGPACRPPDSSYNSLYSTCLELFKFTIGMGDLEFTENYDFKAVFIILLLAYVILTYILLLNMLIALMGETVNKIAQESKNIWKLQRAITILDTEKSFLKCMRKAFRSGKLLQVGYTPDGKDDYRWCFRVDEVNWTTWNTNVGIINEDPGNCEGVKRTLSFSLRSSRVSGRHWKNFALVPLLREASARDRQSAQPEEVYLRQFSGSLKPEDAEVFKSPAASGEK

In turn, `CCCCCCCCCCCC(=O)NCCO` [compound 3, lauric acid monoethanolamide] gave a pEC50 of 5.49.
